Measurements reported in US20190124918A1, “BIOFILM FORMATION INHIBITOR AND BIOFILM FORMATION INHIBITING COMPOSITION” (KAO CORPORATION, priority 2016, published 2019).

Legend:
[1] = system: biofilm-forming microbe isolated from cooling water taken from a water cooling tower; assay: Biofilm inhibition test, quinone-based compound and organic solvent (OD570); format: cell-based; settings: for OD570: alone or added as test solution in Diacetone alcohol, no addition gave 2.15
Experimental: (§1) A biofilm-forming microbe (microbe providing a OD570 value of 0.3 or more in the test for determining the amount of biofilm in the following section 4-3) isolated from cooling water taken from a water cooling tower was cultured in R2A culture medium at 30° C. for 16 hours while shaking. The turbidity (OD600) of the resultant culture solution was measured. The culture solution was diluted with R2A culture medium to prepare a suspension of 10^3 cfu/mL.
The suspension of a test microbe prepared in the above section 4-1) was added in individual wells of a 96 well microplate in an amount of 150 μL. Thereafter, the test solution prepared in the above section 2) was add and culture was initiated.
(§2) The 96 well microplate was subjected to stationary culture performed at 30° C. for 48 hours. The culture solution was removed and the resultant microplate was washed with water. Subsequently, each well was stained with 0.1% crystal violet and 200 μL of ethanol was added. The absorbance (OD570) was measured to obtain the amount of biofilm (BF) formed.

[2] = Dissolution in solvent (MDG) when preparing compositions; format: physicochemical; settings: preparation of compositions
Experimental: (§3) Predetermined amounts of p-toluquinone and HEDP were weighed and solvent (MDG) was added to prepare a composition. Since citric acid and EDTA were not dissolved in MDG, they were directly added in culture solutions; at the same time, p-toluquinone was directly added to the culture solutions.

[3] = system: cooling water taken from a water cooling tower; assay: Aqueous system model (annular reactor): number of bacterial cells in water at inlet and outlet (R2A agar); format: cell-based; settings: Test Example 5; same procedure as Test Example 4; solvent control also about 10^4
Experimental: (§4) Biofilm formation inhibitory activity of p-toluquinone (Tokyo Kasei) was evaluated by an aqueous system model using an annular reactor (Art Science Co., Ltd.) having a 100 mL-volume culture tank. In the culture tank of the annular reactor, a cylindrical rotating body rotating at a speed of 160 rounds per minute was installed. To the rotating body, 12 test pieces were attached in advance. These test pieces were taken out at predetermined time intervals and biofilm formed on the test pieces was quantified. From a water cooling tower provided on a building rooftop and actually used, cooling water was taken and supplied to the annular reactor culture vessel (maintained at 30° C.) at a flow rate of 10 mL per minute; at the same time, an ethanol solution (15 g/L) of p-toluquinone was separately supplied to the annular reactor culture vessel by a syringe pump YSP-201 (manufactured by YMC) at a flow rate of 10 μL per minute (p-toluquinone concentration in cooling water in the culture tank was 15 ppm). The test pieces (n=2) taken out from the culture tank at predetermined time intervals were stained with 0.1% crystal violet, thoroughly washed twice with physiological saline and recovered in ethanol (15 mL). The absorbance (OD570) was measured to obtain the amount of the biofilm formed. […] Thereafter, the number of bacteria cells was measured. […]

[4] = system: Pseudomonas PAO1 strain (ATCC 15692); assay: Amount of biofilm formed (crystal violet, OD570), 96-well microplate culture; format: cell-based; settings: Pseudomonas, read-out: BF inhibition (%); for inhibition at 22 ppm: final concentration 22 ppm; for inhibition at 44 ppm: final concentration 44 ppm; for inhibition at 89 ppm: final concentration 89 ppm; for inhibition at 133 ppm: final concentration 133 ppm; for inhibition at 155 ppm: final concentration 155 ppm; for inhibition at 177 ppm: final concentration 177 ppm
Experimental: Pseudomonas PAO1 strain (ATCC 15692) was subjected to stationary culture performed in LB culture medium (Lysogeny Broth; manufactured by Becton Dickinson) at 37° C. for 24 hours. The turbidity (OD600) of the culture solution was measured. The culture solution was diluted with Mueller Hinton Broth (BBL made) to prepare a suspension (15 mL) having a turbidity (OD600) of 1/10^6. […]
(§5) Growth inhibition rates relative to the control (ethanol alone) were calculated based on OD600 values measured and in accordance with the following expression. In addition, biofilm (BF) formation inhibition rates relative to the control (ethanol alone) were calculated based on OD570 values and in accordance with the following expression:
BF inhibition (%)={1−(compound addition group OD570/control group OD570)}×100
(§6) As a control, an ethanol solvent alone was used (EtOH control). The concentrations of test compounds in the ethanol solution were as follows: test compound 1: 20 mM, test compounds 2 to 7: 100 mM. To each of the wells of a 96-well microplate (351172; manufactured by Japan Becton Dickinson), 6 μL of DMSO (Tokyo Kasei) and an ethanol solution of each test compound (1 to 8 μL) were added and then the microplates were allowed to stand still at room temperature for 5 hours to evaporate ethanol. A suspension solution of a Pseudomonas microbe prepared in the same procedure as in Test Example 1, 1) was added in an amount of 145 μL per well and culture was initiated.
(§7) After the 96-well microplate was subjected to stationary culture at 30° C. for 24 hours, turbidity (OD600) was measured to check growth. Subsequently, individual wells were stained with 0.1% crystal violet and thoroughly washed twice with physiological saline. To each well, 200 μL of ethanol was added and the absorbance (OD570) was measured to obtain the amount of the biofilm formed. The growth inhibition rate and biofilm (BF) formation inhibition rate were calculated based on OD600 and OD570 values measured and in accordance with the expressions used in Test Example 2.

[5] = system: cooling water taken from a water cooling tower; assay: Aqueous system model (annular reactor): amount of biofilm formed on test pieces (OD570); format: cell-based; settings: Test Example 5; same procedure as Test Example 4; solvent control finally beyond 1.0
Experimental: as §4

[6] = system: Pseudomonas PAO1 strain (ATCC 15692); assay: Growth of test microbe (turbidity OD600), 96-well microplate culture; format: cell-based; settings: Pseudomonas; for inhibition at 22 ppm: final concentration 22 ppm; for inhibition at 44 ppm: final concentration 44 ppm; for inhibition at 89 ppm: final concentration 89 ppm; for inhibition at 133 ppm: final concentration 133 ppm; for inhibition at 155 ppm: final concentration 155 ppm; for inhibition at 177 ppm: final concentration 177 ppm
Experimental: Pseudomonas PAO1 strain (ATCC 15692) was subjected to stationary culture performed in LB culture medium (Lysogeny Broth; manufactured by Becton Dickinson) at 37° C. for 24 hours. The turbidity (OD600) of the culture solution was measured. The culture solution was diluted with Mueller Hinton Broth (BBL made) to prepare a suspension (15 mL) having a turbidity (OD600) of 1/10^6.
To each of the wells of a 96-well microplate (351172; manufactured by Japan Becton Dickinson), 6 μL of DMSO (Tokyo Chemical Industry Co. Ltd) and an ethanol solution (1 μL, 3 μL or 5 μL) of a test compound were added. After that, the microplate was allowed to stand still at room temperature for 5 hours to evaporate ethanol. The suspension of Pseudomonas microbe prepared in the above step 1) was added in an amount of 145 μL per well and culture was initiated. As the test compound, 2-methylhydroquinone (Sigma Aldrich) and p-toluquinone (Tokyo Kasei) were used. As a reference compound, sodium hypochlorite (manufactured by Wako Pure Chemical Industries Ltd.) was used. As a control, an ethanol solvent (EtOH control) alone was used. The concentration of the test compound in the ethanol solution is 1,000 ppm or 10,000 ppm and the final concentration of the test compound in the culture solution was about from 7 to 333 ppm.
After the 96-well microplate was subjected to stationary culture performed at 30° C. for 24 hours, turbidity (OD600) was measured to check growth. Subsequently, individual wells were stained with 0.1% crystal violet and thoroughly washed twice with physiological saline. To each well, 200 μL of ethanol was added and the absorbance (OD570) was measured to obtain the amount of the biofilm formed.
Compounds listed in Table 3 were each added to a test microbe and culture was conducted by the same procedure as in Test Example 1 and the amount of growth (OD600) and the amount of biofilm formed (OD570) were measured. For compounds a, b, c, f, h, i, J and k, 20 mM ethanol solutions were prepared; whereas for compounds d, e, g, 5 mM ethanol solutions were prepared. The solutions were each added to a 96-well microplate in an amount of 1 to 8 μL and evaluation was made. The final concentrations of the individual compounds are described in Table 3.
as §5
Growth inhibition (%)=(1−(compound addition group OD600/control group OD600))×100
as §6, §7

B. coli = settings: to B. coli; Non Patent Literature 4; cited from earlier work
[7] = system: biofilm-forming microbe isolated from cooling water taken from a water cooling tower; assay: Biofilm inhibition test, quinone-based compound and chelating agent (OD570); format: cell-based; settings: Experiment No. 19: Toluquinone 0 ppm, Citric acid 10 ppm; 0 ppm/0 ppm gave 0.329
Experimental: as §1, with “(microbe showing” for “(microbe providing”, “biofilm (the” for “biofilm in the”, “section 2-4))” for “section 4-3)”
as §3
The suspension of a test microbe prepared in the above section 2-1) was added in individual wells of a 96 well microplate in an amount of 150 μL, and then, the test solutions prepared in the above section 2-2) was each added and culture was initiated.
as §2, with “After the 96” for “The 96”, “48 hours, the” for “48 hours. The”

`CCCCCCc1ccc(O)cc1O` [4-Hexylresorcinol] showed an OD570 ([1]; 4-Hexylresorcinol 10 ppm) of 1.49 and an OD570 ([1]; 4-Hexylresorcinol 20 ppm) of 0.10.

For `O=C(O)CN(CCN(CC(=O)O)CC(=O)O)CC(=O)O` [EDTA, Ethylenediaminetetraacetic acid], the “dissolution in MDG (diethylene glycol monomethyl ether)” value [2] was “not dissolved”.

With `OCCOCCO` [diethylene glycol] the “decrease of BF formation inhibitory effect of the quinone-based compound by the organic solvent (in words)” value ([1]; from the results in Table 13, among the organic solvents tested) was “lowest”.

In the case of `CCCCc1ccc(O)cc1O` [Compound 1, 4-Butylresorcinol], the “number of bacterial cells at the inlet or outlet of the reactor” value [3] is reported as “about 10^4 cells/mL”, the inhibition at 22 ppm ([4]; Test Example 3) is reported as 0.5% and the inhibition at 44 ppm ([4]; Test Example 3) is reported as 18.3%. The inhibition at 89 ppm ([4]; Test Example 3) was 4.5%, the inhibition at 133 ppm ([4]; Test Example 3) was 12.9% and the inhibition at 155 ppm ([4]; Test Example 3) was 54.9%. The inhibition at 177 ppm ([4]; Test Example 3) was 45.9%, the “amount of the biofilm formed (OD570)” value [5] was no more than 0.4 and the inhibition at 22 ppm ([6]; Test Example 3) was less than 0%. For the same compound, the inhibition at 44 ppm ([6]; Test Example 3) was less than 0%, the inhibition at 89 ppm ([6]; Test Example 3) was less than 0% and the inhibition at 133 ppm ([6]; Test Example 3) was less than 0%. It also gave an inhibition at 155 ppm ([6]; Test Example 3) of 42.8% and an inhibition at 177 ppm ([6]; Test Example 3) of 32.7%.

Compound `CC(C)(C)c1cc(O)ccc1O` [c, tert-Butylhydroquinone] has an inhibition at 22 ppm [4] of 34.8%, an inhibition at 44 ppm [4] of 22.5% and an inhibition at 89 ppm [4] of 32.5%. The inhibition at 133 ppm [4] was 50%, the inhibition at 155 ppm [4] was 69.3% and the inhibition at 177 ppm [4] was 64.8%. The “minimum inhibitory concentration (MIC)” value (B. coli) was 512 ppm, the inhibition at 22 ppm [6] was less than 0% and the inhibition at 44 ppm [6] was 5.3%. It also gave an inhibition at 89 ppm [6] of 9.5%, an inhibition at 133 ppm [6] of less than 0% and an inhibition at 155 ppm [6] of 11.8%. The inhibition at 177 ppm [6] was 13.3%.

With `O=C(O)CC(O)(CC(=O)O)C(=O)O` [Citric acid] the “dissolution in MDG (diethylene glycol monomethyl ether)” value [2] was “not dissolved” and the OD570 [7] was 0.261.
